Results reported in patent US9156872B2, “2′-azido substituted nucleoside derivatives and methods of use thereof for the treatment of viral diseases” (priority 2011, dated 2015).

What follows are compounds tested on HCV replicon cells (assay: Cell-based HCV replicon assay (replicon RNA by Taqman real time PCR)). Settings: HCV replicon 1b, cells harvested on day 3; read-out: 1b EC50.

SMILES	EC50 [µM]
COc1nc(N)nc2c1ncn2[C@@H]1O[C@@H]2COP(=O)(OC3CCC3)O[C@H]2[C@@]1(C)N=[N+]=[N-] (single isomer, unassigned) [Compound 104]	10.9

Same assay, conditions: Hepatitis C virus, 72 h, HCV replicon 1b, cells harvested on day 3; read-out: 1b EC50

SMILES	EC50 [µM]
C[C@@]1(N=[N+]=[N-])[C@H](O)[C@@H](CO)O[C@H]1n1ccc(N)nc1=O [Compound 1]	26
C[C@@]1(N=[N+]=[N-])[C@H](O)[C@@H](CO)O[C@H]1n1cnc2c(N3CCC3)nc(N)nc21 [Compound 137]	> 100
CCCOP1(=O)OC[C@H]2O[C@@H](n3cnc4c(OCC)nc(N)nc43)[C@](C)(N=[N+]=[N-])[C@@H]2O1 (stereo partly shown) [Compound 24]	> 100
C[C@@]1(N=[N+]=[N-])[C@H](O)[C@@H](CO)O[C@H]1n1ccc(=O)[nH]c1=O [Compound 4]	> 100
CC(C)OP1(=O)OC[C@H]2O[C@@H](n3ccc(=O)[nH]c3=O)[C@](C)(N=[N+]=[N-])[C@@H]2O1 (stereo partly shown) [Compound 43]	> 100
CCOc1nc(N)nc2c1ncn2[C@@H]1O[C@H](CO)[C@@H](O)[C@@]1(C)N=[N+]=[N-] [Compound 8]	> 100

Same assay, conditions: Hepatitis C virus, 72 h, read-out: 1b EC50

SMILES	EC50 [µM]
CCOC(=O)[C@H](C)NP(=O)(OC[C@H]1O[C@@H](n2cnc3c(N4CCC4)nc(N)nc32)[C@](C)(N=[N+]=[N-])[C@@H]1O)Oc1ccccc1 (stereo partly shown) [Compound 391]	1.5
C[C@H](NP(=O)(OC[C@H]1O[C@@H](n2ccc(=O)[nH]c2=O)[C@](C)(N=[N+]=[N-])[C@@H]1O)Oc1cccc2ccccc12)C(=O)OCc1ccccc1 (stereo partly shown) [Compound 230]	14
CCCOC(=O)[C@H](C)NP(=O)(OC[C@H]1O[C@@H](n2cnc3c(OC)nc(N)nc32)[C@](C)(N=[N+]=[N-])[C@@H]1O)Oc1ccccc1 (stereo partly shown) [Compound 78]	1.1
COC(=O)[C@H](C)NP(=O)(OC)OC[C@H]1O[C@@H](n2ccc(N)nc2=O)[C@](C)(N=[N+]=[N-])[C@@H]1O (single isomer, unassigned) [Compound 345]	> 100
CC(C)OC(=O)[C@H](C)NP(=O)(OC[C@H]1O[C@@H](n2ccc(N)nc2=O)[C@](C)(N=[N+]=[N-])[C@@H]1O)Oc1ccc(Cl)c(Cl)c1 (stereo partly shown) [Compound 195]	0.02
COc1nc(N)nc2c1ncn2[C@@H]1O[C@H](COP(=O)(N[C@@H](C)C(=O)OC2CCCCC2)Oc2ccccc2)[C@@H](O)[C@@]1(C)N=[N+]=[N-] (stereo partly shown) [Compound 239]	3.6
CCOC(=O)[C@H](C)NP(=O)(OC[C@H]1O[C@@H](n2ccc(=O)[nH]c2=O)[C@](C)(N=[N+]=[N-])[C@@H]1O)Oc1ccccc1 (stereo partly shown) [Compound 15]	1.4
CCCOC(=O)[C@H](C)NP(=O)(OC[C@H]1O[C@@H](n2ccc(=O)[nH]c2=O)[C@](C)(N=[N+]=[N-])[C@@H]1O)Oc1ccccc1 (stereo partly shown) [Compound 28]	2.3
COC(=O)c1ccccc1OP(=O)(N[C@@H](C)C(=O)OC(C)C)OC[C@H]1O[C@@H](n2ccc(=O)[nH]c2=O)[C@](C)(N=[N+]=[N-])[C@@H]1O (stereo partly shown) [Compound 219]	22
C[C@H](NP(=O)(OC[C@H]1O[C@@H](n2ccc(N)nc2=O)[C@](C)(N=[N+]=[N-])[C@@H]1O)Oc1ccc(Cl)cc1)C(=O)OC1CCCCC1 (single isomer, unassigned) [Compound 339]	14
CC(C)OC(=O)[C@H](C)NP(=O)(OC[C@H]1O[C@@H](n2ccc(=O)[nH]c2=O)[C@](C)(N=[N+]=[N-])[C@@H]1O)Oc1ccccc1 (single isomer, unassigned) [Compound 157]	49
COC(=O)[C@H](C)NP(=O)(OC[C@H]1O[C@@H](n2ccc(N)nc2=O)[C@](C)(N=[N+]=[N-])[C@@H]1O)Oc1cccc2ccccc12 (stereo partly shown) [Compound 47]	0.4
CCOc1nc(N)nc2c1ncn2[C@@H]1O[C@H](COP(=O)(N[C@@H](C)C(=O)OC)Oc2ccc(Cl)c(Cl)c2)[C@@H](O)[C@@]1(C)N=[N+]=[N-] (stereo partly shown) [Compound 308]	2.1
CCOc1nc(N)nc2c1ncn2[C@@H]1O[C@H](COP(=O)(N[C@@H](C)C(=O)OC)Oc2ccc(F)cc2)[C@@H](O)[C@@]1(C)N=[N+]=[N-] (single isomer, unassigned) [Compound 173]	0.6
CCCCOC(=O)[C@H](C)NP(=O)(OC[C@H]1O[C@@H](n2cnc3c(OC)nc(N)nc32)[C@](C)(N=[N+]=[N-])[C@@H]1O)Oc1cccc2ccccc12 (stereo partly shown) [Compound 52]	1.2
CCCCOC(=O)[C@H](C)NP(=O)(OC[C@H]1O[C@@H](n2cnc3c(OCC)nc(N)nc32)[C@](C)(N=[N+]=[N-])[C@@H]1O)Oc1ccc(F)cc1 (stereo partly shown) [Compound 366]	0.4
COC(=O)[C@H](C)NP(=O)(OC[C@H]1O[C@@H](n2cnc3c(OC)nc(N)nc32)[C@](C)(N=[N+]=[N-])[C@@H]1O)Oc1ccccc1 (stereo partly shown) [Compound 53]	0.7
CCOc1nc(N)nc2c1ncn2[C@@H]1O[C@H](COP(=O)(N[C@@H](C)C(=O)OC)Oc2ccccc2)[C@@H](O)[C@@]1(C)N=[N+]=[N-] (stereo partly shown) [Compound 9]	0.8
CCCCOC(=O)[C@H](C)NP(=O)(OC[C@H]1O[C@@H](n2cnc3c(OC)nc(N)nc32)[C@](C)(N=[N+]=[N-])C1O)Oc1ccccc1 (single isomer, unassigned) [Compound 262]	2.4
CCOc1nc(N)nc2c1ncn2[C@@H]1O[C@H](COP(=O)(N[C@@H](C)C(=O)OCC(C)(C)C)Oc2ccccc2)[C@@H](O)[C@@]1(C)N=[N+]=[N-] (stereo partly shown) [Compound 11]	1.1
COc1nc(N)nc2c1ncn2[C@@H]1O[C@H](COP(=O)(N[C@@H](C)C(=O)OCC(C)C)Oc2ccccc2)C(O)[C@@]1(C)N=[N+]=[N-] (single isomer, unassigned) [Compound 276]	2.7

Same assay, conditions: read-out: 1b EC50

SMILES	EC50 [µM]
CCCOC(=O)[C@H](C)NP(=O)(OC[C@H]1O[C@@H](n2cnc3c(OCC)nc(N)nc32)[C@](C)(N=[N+]=[N-])[C@@H]1O)Oc1ccccc1 (single isomer, unassigned) [Compound 164]	1
CCOC(=O)[C@H](C)NP(=O)(OC[C@H]1O[C@@H](n2cnc3c(OC)nc(N)nc32)[C@](C)(N=[N+]=[N-])[C@@H]1O)Oc1ccc(Cl)cc1 (single isomer, unassigned) [Compound 290]	0.8
CC(C)COC(=O)[C@H](C)NP(=O)(OC[C@H]1O[C@@H](n2ccc(=O)[nH]c2=O)[C@](C)(N=[N+]=[N-])[C@@H]1O)Oc1ccccc1 (stereo partly shown) [Compound 37]	3.5
CCOc1nc(N)nc2c1ncn2[C@@H]1O[C@H](COP(=O)(N[C@@H](C)C(=O)OC)Oc2ccccc2Cl)[C@@H](O)[C@@]1(C)N=[N+]=[N-] (single isomer, unassigned) [Compound 310]	0.93
COC(=O)[C@H](C)NP(=O)(OC[C@H]1O[C@@H](n2ccc(=O)[nH]c2=O)[C@](C)(N=[N+]=[N-])[C@@H]1O)Oc1ccc(Cl)cc1 (single isomer, unassigned) [Compound 327]	1.7
COC(=O)[C@H](C)NP(=O)(OC)OC[C@H]1O[C@@H](n2ccc(N)nc2=O)[C@](C)(N=[N+]=[N-])[C@@H]1O (single isomer, unassigned) [Compound 346]	> 100
CC(C)OC(=O)[C@H](C)NP(=O)(OC[C@H]1O[C@@H](n2ccc(N)nc2=O)[C@](C)(N=[N+]=[N-])[C@@H]1O)Oc1ccccc1Cl (stereo partly shown) [Compound 95]	4.5
CC(C)COC(=O)[C@H](C)NP(=O)(OC[C@H]1O[C@@H](n2ccc(=O)[nH]c2=O)[C@](C)(N=[N+]=[N-])[C@@H]1O)Oc1ccccc1 (stereo partly shown) [Compound 38]	0.3
COC(=O)[C@H](C)NP(=O)(OC[C@H]1O[C@@H](n2cnc3c(N4CCC4)nc(N)nc32)[C@](C)(N=[N+]=[N-])[C@@H]1O)Oc1ccccc1Cl (stereo partly shown) [Compound 389]	2.3
CCOc1nc(N)nc2c1ncn2[C@@H]1O[C@H](COP(=O)(N[C@@H](C)C(=O)OCc2ccccc2)Oc2ccccc2)[C@@H](O)[C@@]1(C)N=[N+]=[N-] (single isomer, unassigned) [Compound 350]	1
C[C@H](NP(=O)(OC[C@H]1O[C@@H](n2ccc(N)nc2=O)[C@](C)(N=[N+]=[N-])[C@@H]1O)Oc1ccccc1Cl)C(=O)OCC(C)(C)C (single isomer, unassigned) [Compound 182]	12
CCOC(=O)[C@H](C)NP(=O)(OC[C@H]1O[C@@H](n2ccc(N)nc2=O)[C@](C)(N=[N+]=[N-])[C@@H]1O)Oc1ccccc1Cl (stereo partly shown) [Compound 184]	5.7
C[C@H](NP(=O)(OC[C@H]1O[C@@H](n2ccc(N)nc2=O)[C@](C)(N=[N+]=[N-])[C@@H]1O)Oc1ccccc1)C(=O)OC1CCCC1 (stereo partly shown) [Compound 205]	15
CCOc1nc(N)nc2c1ncn2[C@@H]1O[C@H](COP(=O)(N[C@@H](C)C(=O)OC)Oc2ccccc2)[C@@H](O)[C@@]1(C)N=[N+]=[N-] (single isomer, unassigned) [Compound 143]	0.6
CCOc1nc(N)nc2c1ncn2[C@@H]1O[C@H](COP(=O)(N[C@@H](C)C(=O)OC(C)C)Oc2ccccc2Cl)[C@@H](O)[C@@]1(C)N=[N+]=[N-] (single isomer, unassigned) [Compound 315]	9.2
COC(=O)c1ccccc1OP(=O)(N[C@@H](C)C(=O)OC)OC[C@H]1O[C@@H](n2ccc(=O)[nH]c2=O)[C@](C)(N=[N+]=[N-])[C@@H]1O (single isomer, unassigned) [Compound 227]	3.1
CCOc1nc(N)nc2c1ncn2[C@@H]1O[C@H](COP(=O)(N[C@@H](C)C(=O)OCC(C)C)Oc2ccccc2)[C@@H](O)[C@@]1(C)N=[N+]=[N-] (stereo partly shown) [Compound 60]	2
COC(=O)[C@H](C)NP(=O)(OC[C@H]1O[C@@H](n2ccc(N)nc2=O)[C@](C)(N=[N+]=[N-])[C@@H]1O)Oc1ccccc1Cl (single isomer, unassigned) [Compound 331]	10
COc1nc(N)nc2c1ncn2[C@@H]1O[C@H](COP(=O)(N[C@@H](C)C(=O)OC2CCCCC2)Oc2ccc(Cl)cc2)[C@@H](O)[C@@]1(C)N=[N+]=[N-] (single isomer, unassigned) [Compound 273]	2.8
CCCCOC(=O)[C@H](C)NP(=O)(OC[C@H]1O[C@@H](n2cnc3c(OCC)nc(N)nc32)[C@](C)(N=[N+]=[N-])[C@@H]1O)Oc1ccccc1 (single isomer, unassigned) [Compound 168]	1.5
COC(=O)[C@H](C)NP(=O)(OC[C@H]1O[C@@H](n2ccc(N)nc2=O)[C@](C)(N=[N+]=[N-])[C@@H]1O)Oc1ccc(F)cc1 (single isomer, unassigned) [Compound 188]	5.6
